Laboratory results taken from US20030108612A1, “Metallic nanoparticles for inhibition of bacterium growth” (priority 2001, published 2003).

How the values were obtained:
[1] = test system: Pseudomonas aeruginosa cells (WT, na1B, ΔABM); experiment: Overnight culture, visual inspection of turbidity (MIC); assay type: cell-based; conditions: visual inspection after overnight incubation
Excerpt: Three strains of Pseudomonas aeruginosa cells (WT, na1B, ΔABM) were used in this working example. “WT” stands for wild type P. aeruginosa, PA04290. The symbol “AABM” stands for a mutant of wild type P. aeruginosa, PA04290, lacking MexA, MaxB and OprM, wherein MexA, MexB and OprM are component genes of an efflux system in wild type P. aeruginosa. The symbol “na1B” stands for a mutant of wild type P. aeruginosa, PA04290, having over expression of the MexA, MexB and OprM genes. These three strains were precultured in autoclaved test tubes overnight. Each test tube contained 3 mL of L-broth medium (1% tryptone, 0.5% yeast extract and 0.5% NaCl, pH 7.2) and was placed inside a shaker at 37° C. and 230 rpm. Then, 20 μL of this pre-cultured cell medium was transferred to each new test tube containing 2 mL of L-broth medium and 0, 2, 20, 40, 80, 100, 200 and 400 μL of a sterile liquid containing 300 pM silver enhanced gold particles (as the metallic nanoparticles used in this example) prepared as described in Example 1. […] Based on visual inspection of test tubes (the presence or absence of turbidity in the medium in each of the test tube) after the overnight incubation, it was determined that the bacterial cells grew at a concentration of the silver coated gold particles of less than 20 pM, but not at a concentration of 20 pM or more. […]

[2] = test system: P. aeruginosa, WT, na1B and ΔABM; experiment: Overnight culture, cell count by single-cell dark-field microscopy (MIC); assay type: cell-based, Pseudomonas aeruginosa; conditions: antibiotic concentration 3.13, 15.65 or 31.3 μg/mL
Excerpt: Images were taken of the 5 samples using a dark-field microscope equipped with a Micromax CCD camera. For each of the three strains of P. aeruginosa, 5 samples of the […], 0.2, 2, 20 or 90 pM were examined using dark-field microscopy to count the number of P. aeruginosa cells present. For each sample, 5 pictures were taken at different locations to obtain representative numbers of P. aeruginosa cells present in each sample and the numbers of P. aeruginosa cells counted in the 5 pictures were summed to obtain the total number of P. aeruginosa cells in the 5 pictures. FIG. […] However, at a metallic nanoparticle concentration of 0, 0.2 or 2 pM, there were 200 or more P. aeruginosa cells in the 5 pictures of the culture medium. […] There were green, blue and red metallic nanoparticles, but the most abundant were green. The red nanoparticles appeared to be the brightest under the dark-field microscope because of the larger size.
After the overnight incubation described above, images were taken using a dark-field microscope equipped with a Micromax CCD camera. For each of the three strains of P. aeruginosa in the presence of azthreonam or gentamicin at a concentration of 0.313, 3.13, 15.65 or 31.3 μg/mL, 4 samples of the culture medium were subjected to single-cell dark-field microscopy. […]

WT P. aeruginosa = conditions: published literature; cited from earlier work
[3] = test system: P. aeruginosa, WT, na1B and ΔABM; experiment: Overnight culture, absorbance at 600 nm by UV-vis spectroscopy (MIC); assay type: cell-based, Pseudomonas aeruginosa; conditions: antibiotic concentration 3.13, 15.65 or 31.3 μg/mL, three strains
Description: After the overnight incubation, the absorbance of the […] an UV-vis spectrometer to determine the concentrations of bacterial cells based upon the light scattering of bacterial cells for the three strains of P. aeruginosa, WT, na1B and ΔABM. For each strain of P. aeruginosa cells and each concentration of the silver coated gold particles, the absorbances of 5 samples of the culture medium were measured with the absorbance of each sample measured 3 times and the average absorbance was calculated. The absorbance of ultra-pure water containing the corresponding concentration of silver coated gold particles was subtracted from the average absorbance and the resulting absorbance was plotted in FIG. 1 versus the concentrations of the silver coated gold particles used in the incubation. […] Thus, the MICs of the silver coated gold particles were determined to be about 20 pM for these three strains of P. aeruginosa.
With a UV-vis spectrometer, the absorbance of each sample of the culture medium was measured at 600 nm after the overnight incubation to determine the P. aeruginosa cell concentration based upon light scattering of cells. For each strain of P. aeruginosa cells, the absorbances of 4 samples of the P. aeruginosa culture medium containing azthreonam or gentamicin at a concentration of 0.313, 3.13, 15.65 or 31.3 μg/mL were measured. […]

C[C@H]1[C@H](NC(=O)/C(=N\OC(C)(C)C(=O)O)c2csc(N)n2)C(=O)N1S(=O)(=O)O [azthreonam]
minimum inhibitory concentrations (MICs) [1]: about 3.13 μg/mL | total number of P. aeruginosa cells present in the 5 pictures [2]: almost zero | MIC (WT P. aeruginosa): about 3.13 μg/mL | absorbance at 600 nm [3]: almost zero

gentamicin
minimum inhibitory concentrations (MICs) [1]: about 3.13 μg/mL | total number of P. aeruginosa cells present in the 5 pictures [2]: almost zero | MIC (WT P. aeruginosa): about 3.13 μg/mL | absorbance at 600 nm [3]: almost zero
